Test systems include CCRF-CEM leukemia; HCC-2998 colon; LOX IMVI melanoma; MALME-3M melanoma; NCI-H226 lung; SR leukemia; TK-10 renal; UACC-257 melanoma; CAKI-1 renal; COLO 205 colon.
Assay in all cases: NCI-60 cell line screen, 48 h

Values joined by “and” are separate entries in the source; they are usually repeats but may differ in a detail not shown here. Equal entries are not always repeated.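 1) Cells in 96-well plates. 2) Compound, 48 h, 5 concentrations. 3) Linear interpolation between surrounding doses. 4) Unreached endpoint = highest concentration. The concentration for 50% growth inhibition is given as GI50. TGI: concentration producing complete growth inhibition.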

On to `CC1=C(C(=O)NCc2ccccc2)C(c2ccc(Cl)c(Cl)c2)C(C(=O)NCc2ccccc2)=C(C)N1`, for which the TGI in the assay with CCRF-CEM leukemia, with HCC-2998 colon, with LOX IMVI melanoma, in the assay with MALME-3M melanoma, with NCI-H226 lung and in the assay with SR leukemia was more than 100 µM throughout. For the same molecule, the TGI in the assay with TK-10 renal and in the assay on UACC-257 melanoma was more than 100 µM in each case.

Turning to `CCOc1ccccc1NC(=O)C(=O)C(/C(=N/N)C(=O)OC)c1nc2ccc([N+](=O)[O-])cc2[nH]c1=O` (stereo unspecified), the TGI in the assay on CAKI-1 renal, in the assay on CCRF-CEM leukemia, in the assay with HCC-2998 colon, with LOX IMVI melanoma, with MALME-3M melanoma and with NCI-H226 lung was more than 100 µM each time. The TGI with SR leukemia, with TK-10 renal and with UACC-257 melanoma was more than 100 µM each time.

On to `O=C1N2Cc3c4ccc5c3CN3C(=O)N6Cc7c(ccc(c7CN1C6(c1ccccc1)C23c1ccccc1)OCCOCCOc1cc(Br)c(Br)cc1OCCOCCO4)OCCOCCOc1cc(Br)c(Br)cc1OCCOCCO5` (stereo unspecified), for which the TGI in the assay with CAKI-1 renal, with CCRF-CEM leukemia, in the assay on HCC-2998 colon, in the assay on MALME-3M melanoma, with NCI-H226 lung and in the assay on SR leukemia was more than 100 µM in each case. Also, the TGI with TK-10 renal and with UACC-257 melanoma was more than 100 µM throughout.

Consider `COc1cc(Cl)cc(-c2nn(-c3cccc(NC(=O)Nc4cccc(C(F)(F)F)c4)c3)cc2-c2ccncc2)c1`, for which the GI50 is 1.29 µM in the assay with CAKI-1 renal; 1.2 µM with CCRF-CEM leukemia; 1.53 µM in the assay on COLO 205 colon; 3.47 µM with HCC-2998 colon; 1.81 µM in the assay with LOX IMVI melanoma; 1.79 µM in the assay with MALME-3M melanoma. Also, the GI50 with NCI-H226 lung was 2.26 µM; in the assay with SR leukemia it was 1.14 µM; in the assay on UACC-257 melanoma, 1.75 µM. Moreover, the TGI in the assay with CAKI-1 renal amounted to 8.9 µM; in the assay on CCRF-CEM leukemia, 5.36 µM; with COLO 205 colon it was 3.17 µM; with HCC-2998 colon, 14 µM; with LOX IMVI melanoma it was 7.04 µM; in the assay with MALME-3M melanoma it was 5.91 µM. For the same molecule, the values for the TGI in the assay with NCI-H226 lung, in the assay with SR leukemia and in the assay with UACC-257 melanoma were 11.5 µM, 4.39 µM and 4.65 µM, respectively.

In the case of `N#Cc1cnc2cc(OC[C@@H](O)CO)c(NC(=O)C3CCCC3)cc2c1Nc1ccc(OCc2cccc(F)c2)c(Cl)c1`, the GI50 with CAKI-1 renal was 5.61 µM; in the assay with CCRF-CEM leukemia, 0.48 µM; with COLO 205 colon, 4.28 µM; in the assay on HCC-2998 colon, 1.1 µM; with LOX IMVI melanoma, 1.01 µM; in the assay with NCI-H226 lung, 3.86 µM. Besides, the GI50 with SR leukemia was 1.24 µM; in the assay on TK-10 renal, 1.99 µM. Further, the TGI in the assay on CAKI-1 renal was more than 50 µM; in the assay with CCRF-CEM leukemia, 2.19 µM; in the assay on COLO 205 colon, 26 µM; with HCC-2998 colon it was 3.38 µM; in the assay on LOX IMVI melanoma, 2.28 µM; in the assay on NCI-H226 lung, 11.4 µM. The TGI with SR leukemia is more than 50 µM; in the assay with TK-10 renal, 7.21 µM.

Turning to `CC(C)(C)OC(=O)NCCCCn1c2c(c3ccccc3c1=O)C(=O)c1ccccc1-2`, the GI50 in the assay on CAKI-1 renal was 10.7 µM; in the assay with CCRF-CEM leukemia, 9.52 µM; in the assay with COLO 205 colon, 44 µM; with LOX IMVI melanoma it was 12.5 µM; with MALME-3M melanoma, 27.1 µM; with NCI-H226 lung, 14.1 µM. Besides, the GI50 in the assay with SR leukemia was 3.59 µM; in the assay on TK-10 renal, 20.7 µM; in the assay with UACC-257 melanoma, 29.7 µM. Besides, the TGI was 37.2 µM in the assay with CAKI-1 renal; more than 100 µM with CCRF-CEM leukemia; more than 100 µM with COLO 205 colon; 36.7 µM with LOX IMVI melanoma; 80.6 µM in the assay on MALME-3M melanoma; 51.2 µM in the assay with NCI-H226 lung. Also, the TGI is 42.4 µM in the assay with SR leukemia, 47.7 µM in the assay on TK-10 renal and 71.1 µM in the assay on UACC-257 melanoma.

Turning to `O=c1[nH]c2cc([N+](=O)[O-])ccc2nc1/C(=N/Nc1ccccc1)C(O)c1ccco1` (stereo unspecified), the TGI with CAKI-1 renal, with CCRF-CEM leukemia, in the assay with COLO 205 colon, in the assay with HCC-2998 colon, with LOX IMVI melanoma and in the assay on MALME-3M melanoma was more than 100 µM throughout. The TGI in the assay on NCI-H226 lung was 76.1 µM; in the assay with SR leukemia, more than 100 µM; with UACC-257 melanoma, more than 100 µM.

For the molecule `CCOC(=O)C(Cc1c[nH]c2cc(N(CCO)CCO)ccc12)(NC(C)=O)C(=O)OCC`, the TGI with CCRF-CEM leukemia is 57.2 µM and 448 µM; in the assay with COLO 205 colon it was more than 1000 µM; in the assay with HCC-2998 colon, more than 1000 µM; in the assay on LOX IMVI melanoma, more than 1000 µM; in the assay on MALME-3M melanoma it was more than 1000 µM; in the assay with NCI-H226 lung, more than 1000 µM. Besides, the TGI with TK-10 renal and with UACC-257 melanoma was more than 1000 µM each time. Further, the GI50 was 274 µM in the assay on COLO 205 colon; more than 1000 µM in the assay on HCC-2998 colon; 217 µM in the assay on LOX IMVI melanoma; 258 µM with MALME-3M melanoma; more than 1000 µM with NCI-H226 lung; 16.8 µM and 34.6 µM in the assay on SR leukemia. In addition, the GI50 with TK-10 renal and in the assay with UACC-257 melanoma was more than 1000 µM throughout.

As for `O=C(O)C1CC=CCC1C(=O)Nc1cccc(O)c1` (stereo unspecified), the TGI with CAKI-1 renal, with COLO 205 colon, with HCC-2998 colon, in the assay on LOX IMVI melanoma, in the assay with MALME-3M melanoma and in the assay on NCI-H226 lung was more than 100 µM each time. In addition, the TGI in the assay on SR leukemia, with TK-10 renal and in the assay on UACC-257 melanoma was more than 100 µM each time.

As for `CN1CCN(c2ccc(OC(F)(F)F)c(Nc3ncc4c(n3)-c3c(c(C(N)=O)nn3CCO)CC4)c2)CC1`, the GI50 in the assay with CAKI-1 renal is 0.584 µM and 0.831 µM; in the assay on CCRF-CEM leukemia, 0.0197 µM and 0.0283 µM; with COLO 205 colon, 0.0255 µM and 0.0275 µM; in the assay on HCC-2998 colon it was 0.0487 µM and 0.174 µM; with LOX IMVI melanoma it was 0.0372 µM and 0.0519 µM; in the assay with NCI-H226 lung, 4.26 µM and 1.21 µM. In addition, the GI50 in the assay on SR leukemia is 0.0231 µM and 0.03 µM. Also, the TGI in the assay with CAKI-1 renal was more than 44.8 µM; with CCRF-CEM leukemia, 28.5 µM; with HCC-2998 colon, 18.7 µM and > 4.38 µM; with LOX IMVI melanoma it was 16.1 µM and > 3.87 µM; with MALME-3M melanoma, 29.8 µM and > 10 µM; in the assay with NCI-H226 lung, 50.4 µM and > 10 µM. Further, the TGI in the assay on SR leukemia is 18.6 µM and > 3.19 µM; with UACC-257 melanoma, 28.6 µM and > 6.61 µM.
